Results on 4 compounds are retold here after patent publication US20100143270A1, “THERAPEUTIC COTININE COMPOSITIONS” (University of Louisville Research Foubdation, priority 2007, published 2010).

Entries after “also recorded” stand apart in the source; their conditions may differ.

Data set [1] relates to THP-1 cells. The data set is described as follows: IL-10 release by LPS-stimulated THP-1 cells (ELISA). The class given is cell-based. The method, then: (§1) FIG. 11. The anti-inflammatory potential of cotinine is a GSK-3β-dependent but NF-κB-independent phenomenon. THP-1 Blue cells are stably transfected with a reporter plasmid expressing secreted embryonic alkaline phosphatase (SEAP) gene under the control of a NF-κB-inducible promoter. […] Cell-free supernatants were harvested by centrifugation and relative expression levels of SEAP (reflecting NF-κB; THP-1 Blue; circles) and IL-10 (THP-1; bars) were determined by spectrophotometric analysis of SEAP activity and ELISA, respectively.
(§2) THP-1 Blue cells are monocyte-like cells that have been stably transfected with a reporter plasmid expressing secreted embryonic alkaline phosphatase (SEAP) gene under the control of a NF-κB-inducible promoter. […] Cell-free supernatants were harvested by centrifugation and relative expression levels of NF-κB and IL-10 were determined by spectrophotometric analysis of SEAP activity and ELISA, respectively.
Levels of phosphorylated Akt and phoshorylated GSK-3β following cotinine (0-100 ng ml^−1) and/or E. coli LPS (1 μg ml^−1) treatment were determined by western blot using whole-cell lysates (20 μg) with probing for Akt using a phospho-specific Akt (Ser473) antibody; probing for GSK-3β using a phospho-specific GSK-3β (Ser9; denoted pGSK-3β) antibody; with the blots stripped and re-probed for total p38 to ensure equivalent loading. Antibodies were purchased from Cell Signaling, Beverly, Mass. Blots were visualized by enhanced chemiluminescence. The importance of the PI3K-dependent anti-inflammatory pathway in cotinine-induced inflammatory suppression was also established by pharmacological inhibition of PI3K and GSK-3β using the PI3K antagonists LY294002 (25 μM; Calbiochem®, San Diego, Calif.) and wortmannin (100 nM, Calbiochem); and the GSK-3β inhibitor SB216763 (6 μM; Sigma). […] Therefore, cells were also analyzed for cotinine-induced PI3K activation by, assaying the ability of PI3K to produce PIP3. Levels of PIP3 were determined by ELISA using a competitive inhibition assay (Echelon Bioscience, Salt Lake City, Utah). […]

The subject of data set [2] is LPS-stimulated monocytes. The data set is described as follows: Pro-inflammatory cytokine release by LPS-stimulated human monocytes (ELISA). The class given is cell-based. On the procedure:
FIGS. 3A-3E. […] Monocytes were pre-treated with cotinine (1000 ng/ml) for 2 hours then stimulated with purified LPS (0 to 1×10^4 ng/ml) for 24 hours.
FIGS. 6A-6E. […] Cells were pre-treated with nicotine or cotinine (100 and 1000 ng/ml, respectively) for 2 hours then stimulated with purified LPS (0 to 1×10^4 ng/ml) for 24 hours. […] FIG. 6A provides data for IFNγ; FIG. 6B provides data for IL-1β, FIG. 6C provides data for IL-6, FIG. 6D provides data for TNF-α, and FIG. 6E provides data for IL-12/IL-23 p40.
Cotinine inhibited the production and release of multiple pro-inflammatory cytokines by monocytes stimulated with Toll-like receptor (TLR)-agonists in a dose-dependent manner. Cells were pre-treated with cotinine for 2 hours then stimulated with a TLR-agonist (purified LPS, 0 to 1×10^4 ng ml^−1) for 24 hours.
Inflammatory response of cotinine-exposed monocytes to P. gingivalis and LPS: In an initial series of experiments, we determined how physiological doses of nicotine and cotinine influenced levels of TNF secreted by monocytes stimulated with LPS. Human monocytes were pre-treated for 90 minutes with nicotine (1 to 1,000 ng/ml; Sigma-Aldrich, Inc.) or cotinine (1 to 10,000 ng/ml; Sigma-Aldrich, Inc.), then stimulated with purified E. coli K-12 LPS (0 to 10 μg/ml; InVivoGen™, San Diego, Calif.). TNF concentrations in 24 hr supernatants were measured by ELISA (eBioscience, San Diego, Calif.). Subsequently, the concentrations of multiple cytokines in 24 hr supernatants of cotinine pre-incubated (1000 ng/ml) LPS-([…]) stimulated monocytes were measured by ELISA (IFN-γ (PBL Biomed Labs, Piscataway, N.J.), IL-1β, IL-6, TNF, IL-10 (all eBioscience), and IL-12/IL-23 p40 (R&D Systems, Minneapolis, Minn.).
Primary monocytes were pre-treated with nicotine (0-100 ng ml^−1) or cotinine (0-1000 ng ml^−1) then stimulated with the Gram negative periodontal pathogen P. gingivalis (MOI=0-10); purified E. coli K-12 LPS (0-1 μml^−1; InVivoGen™, San Diego, Calif.); or purified P. gingivalis 33277 LPS for 20 h. Primary monocytes were also pre-treated with cotinine (100 ng ml^−1) then stimulated with increasing doses of LPS for 20 h. Cell-free supernatants were harvested by centrifugation and cytokine levels (TNF, IL-6, IL-10, IL-12/IL-23 p40, as appropriate) were determined by ELISA (eBioscience, San Diego, Calif. or R&D Systems, Minneapolis, Minn.).

The test system of data set [3] is LPS-stimulated monocytes. The data set is described as follows: IL-10 release by LPS-stimulated human monocytes (ELISA). The format is cell-based.
The subject of data set [4] is THP-1 or THP-1 Blue cells. Briefly: Viability of THP-1 or THP-1 Blue cells. The class given is cell-based. Particulars: cotinine 100 ng ml^−1.
For data set [5] the following is noted: cited from earlier work.
Data set [6] has as its system GSK-3β (Ser9). The data set is described as follows: Phosphorylated GSK-3β western blot in monocytes. The format is cell-based, human. Particulars: P. gingivalis stimulated monocytes. The method, then: (§3) Antibodies were purchased from Cell Signaling, Beverly, Mass. Blots were visualized by enhanced chemiluminescence. The importance of the PI3K-dependent anti-inflammatory pathway in cotinine-induced inflammatory suppression was also established by pharmacological inhibition of PI3K and GSK-3β using the PI3K antagonists LY294002 (25 μM; Calbiochem®, San Diego, Calif.) and wortmannin (100 nM, Calbiochem); and the GSK-3β inhibitor SB216763 (6 μM; Sigma). Activated PI3K produces PIP3 that, in turn, activates downstream signaling components of the PI3K pathway. Therefore, cells were also analyzed for cotinine-induced PI3K activation by, assaying the ability of PI3K to produce PIP3. Levels of PIP3 were determined by ELISA using a competitive inhibition assay (Echelon Bioscience, Salt Lake City, Utah). The specific PI3K inhibitor LY294002 was used at 25 μM and served as a control to block PI3K activity.

In data set [7] the test system is striatal dopamine release. The settings on record: cited from earlier work.
The conditions of data set [8]: cited from earlier work; for Terminal elimination half-life: in vivo.
The subject of data set [9] is PI3K. The data set is described as follows: PI3K activation in monocytes measured as PIP3 (competitive ELISA). The class given is cell-based, human. Particulars: LPS 1 μg ml^−1 60 minutes.
Data set [10] concerns primary monocytes. The data set is described as follows: Viability of primary monocytes.
Experimental: Monocytes were pre-treated for 2 h with nicotine (triangles) or cotinine (squares) then stimulated with P. gingivalis (MOI=10) for 20 h. Cell-free supernatants were harvested by centrifugation and levels of TNF-α were determined by ELISA.
(A-E) Control monocytes (closed squares) and monocytes pre-treated with cotinine (100 ng ml^−1) for 2 hours (open squares) were stimulated with P. gingivalis 33277 LPS (0-10^5 ng ml^−1) for 24 hours. Cell-free supernatants were harvested by centrifugation and levels of pro-inflammatory cytokines (A-E) and IL-10 (E) were determined by ELISA. Data are the arithmetic mean±s.d. of 3 experiments.
Data set [11] relates to nicotinic receptors in the brain. Particulars: cited from earlier work.
Data set [12] concerns NF-κB. The data set is described as follows: NF-κB-inducible SEAP reporter in LPS-stimulated THP-1 Blue cells. The class given is cell-based. Particulars: cotinine 100 ng ml^−1 2 h, LPS 1 μg ml^−1 24 h. On the procedure:
as §1, §2

Data set [13] deals with P. gingivalis-stimulated human monocytes. The data set is described as follows: TNF release by P. gingivalis-stimulated human monocytes (ELISA). Particulars: for TNF release compared to cells stimulated with P. gingivalis alone: 2 h pre-treatment with nicotine or cotinine, P. gingivalis MOI=10 for 20 h, dose-dependent. The format is cell-based.
In data set [14] the test system is neutrophils. Particulars: cited from earlier work.
The subject of data set [15] is Akt (Ser473). The data set is described as follows: Phosphorylated Akt western blot in monocytes. Particulars: P. gingivalis stimulated monocytes; PI3K-dependent. The class given is cell-based, human. On the procedure: as §3
The mark [16] stands for this setting: cotinine 100 ng ml^−1 2 h, P. gingivalis 33277 LPS 0-10^5 ng ml^−1 24 h.
[17] abbreviates: cotinine 1000 ng/ml 2 h, LPS 0 to 1×10^4 ng/ml 24 h.

Regarding `Cn1cc(C2=C(c3ccc(Cl)cc3Cl)C(=O)NC2=O)c2ccccc21` [SB216763], the IL-10 production result in data set [1] (GSK-3β inhibitor SB216763 6 μM, LPS) is recorded as “enhances IL-10 production in response to LPS”. Also, the “Potency as inducer of IL-10 relative to cotinine” value in [1] (SB216763 versus cotinine 10 ng ml^−1, p<0.05) is given as “significantly less potent inducer of IL-10 than cotinine; also recorded: less potent than even low doses of cotinine”.
`CN1C(=O)CC[C@H]1c1cccnc1` [cotinine, (S)-1-methyl-5-(3-pyridinyl)-2-Pyrrolidinone]: in data set [2] (setting [16]), the IL-1β release result is recorded as “dramatically suppresses”, the IL-6 release entry was “dramatically suppresses”, the “IL-12/IL-23 p40 subunit release” value was “dramatically suppresses” and the TNF-α release result is listed as “dramatically suppresses”. In data set [2] (setting [17]), the IFN-γ production result is on record as “suppressed”, the IL-1β production result was “suppressed”, the IL-6 production result is on record as “suppressed” and the “IL-12/IL-23 p40 production” value is “suppressed”. Also, in data set [2] (setting [17]), the TNF-α production entry is on record as “suppressed”. Besides, the IL-10 release entry in [3] (cotinine 0 to 10,000 ng/ml 2 h, purified LPS 24 h) was “increased the production and release; also recorded: enhanced production; also recorded: increases the release”. Moreover, the IL-10 production entry in data set [3] (cotinine 100 ng ml^−1 2 h, P. gingivalis 33277 LPS 24 h) is “enhancing production; also recorded: augments IL-10 production”. In addition, the “Viability of THP-1 or THP-1 Blue cells compared to LPS alone” value in data set [4] is “no statistically significant effect”. In addition, in data set [1] (cotinine pre-treatment 2 h, LPS 1 μg ml^−1 24 h), the IL-10 production entry is “augment IL-10 production”. The “Vasoactivity (heart rate, blood pressure, skin temperature)” value in data set [5] (cotinine infusions in humans) is given as “may not be vasoactive”. The Addictiveness result in data set [5] (in vivo) was “non-addictive”. In addition, the “Safety of administration to humans” value in [5] (levels as high as 10 times that attained from cigarette smoking) was “safe”. Besides, the “Levels of phosphorylated (inactive) GSK3-β” value in [6] was “augments”. Besides, the Striatal dopamine release entry in data set [7] is reported as “evokes striatal dopamine release”. The “Systemic concentration relative to nicotine” value in [8] (humans) is reported as “ten-fold”. Also, in data set [8], the Terminal elimination half-life result is “sixteen” and the “Mean concentration in smokers” value is 200 to 500 ng/mL. The “Systemic levels in second-hand smokers” value in [8] (second-hand smokers) was 1 to 15 ng/mL. Further, in data set [9], the “PIP3 levels (PI3K activation)” value is “potently augments the activation of PI3K; also recorded: increased PIP3 levels”. Moreover, in data set [10] (cotinine 0 to 10^5 ng ml^−1), the “Viability of primary monocytes compared to P. gingivalis alone” value is on record as “no statistically significant effect”. Besides, the “Viability of primary monocytes compared to LPS alone” value in [10] (cotinine 100 ng ml^−1) is listed as “no statistically significant effect”. The “Upregulation of nicotinic receptor expression in the brain” value in [11] is reported as “does not appear to upregulate”. The “LPS-induced NF-κB (SEAP activity)” value in data set [12] is on record as “not affected; also recorded: not influenced”. The “TNF release compared to cells stimulated with P. gingivalis alone” value in [13] is given as “equally as effective as nicotine; also recorded: produce significantly less TNF-α”. For the same compound, in data set [14], the “Release of free radicals from neutrophils” value is “suppresses the release of free radicals from neutrophils”. Also, the “Levels of phosphorylated (active) Akt” value in [15] was “enhances”.
Regarding `CNC1(C)C2CCC(C2)C1(C)C` (centres unmarked) [mecamylamine], the “Effect of non-selective nAChR antagonist on cotinine-induced inflammatory suppression” value in data set [13] (mecamylamine 10 μM pre-incubation) is “nAChR-dependent phenomenon”.
For the compound `CN1CCC[C@H]1c1cccnc1` [nicotine, (S)-3-(1-methyl-2-pyrrolidinyl)pyridine, reference compound], in [8], the Terminal elimination half-life result is listed as “two” and the “Mean concentration in smokers” value was around 30 ng/mL. In addition, in data set [8] (metabolized by the liver), the “Fraction of nicotine converted to cotinine” value was “up to 80%”. The “PIP3 levels (PI3K activation)” value in data set [9] was “increased PIP3 levels”. Also, in [13], the “TNF release compared to cells stimulated with P. gingivalis alone” value is given as “inhibits the release of TNF; also recorded: produce significantly less TNF-α”.
